# Reference: patent US7687522B2, “Substituted pyridines and pyrimidines and their use in treatment of cancer” (Amgen Inc., priority 2006, dated 2010)
# Target: T1, c-Met (Homo sapiens, UniProt P08581)
# T1 construct: A PCR product covering residues 1058-1365 of c-Met (c-Met kinase domain) is generated; made in house; host or cells: baculovirus-infected (insect) cells
# Assay: c-Met receptor assay (HTRF kinase assay with GST-cMet (P) enzyme, gastrin substrate)
# Assay type: biochemical
# Protocol: A PCR product covering residues 1058-1365 of c-Met (c-Met kinase domain) is generated as described in WO 06/116,713 the entirety of which is incorporated herein by reference.
# Baculovirus cells are broken in 5× (volume/weight) of Lysis Buffer (50 mM HEPES, pH 8.0, 0.25 M NaCl, 5 mM mercaptoethanol, 10% glycerol plus Complete Protease Inhibitors (Roche (#10019600), 1 tablet per 50 mL buffer). The lysed cell suspension is centrifuged at 100,000×g (29,300 rpm) in a Beckman ultracentrifuge Ti45 rotor for 1 h. The supernatant is incubated with 10 ml of Glutathione Sepharose 4B from Amersham Biosciences (#27-4574-01). Incubation is carried out overnight in a cold room (approximately 8° C.). The resin and supernatant is poured into an appropriately sized disposable column and the flow through supernatant was collected. The resin is washed with 10 column volumes (100 mL) of Lysis Buffer. The GST-cMET is eluted with 45 mL of 10 mM Glutathione (Sigma #G-4251) in Lysis Buffer. The elution is collected as 15 mL fractions. Aliquots of the elution fractions are run on SDS PAGE (12% Tris Glycine gel, Invitrogen, #EC6005BOX). The gel is stained with 0.25% Coomassie Blue stain. Fractions with GST-cMET are concentrated with a Vivaspin 20 mL Concentrator (#VS2002; […]) to a final volume less than 2.0 ml. The concentrated GST-cMET solution is applied to a Superdex 75 16/60 column (Amersham Biosciences # 17-1068-01) equilibrated with 25 mM Tris, pH 7.5, 100 mM NaCl, 10 mM mercaptoethanol, 10% glycerol. The GST-cMET is eluted with an isocratic run of the above buffer, with the eluent collected in 1.0 mL fractions. Fractions with significant OD280 readings are run on another 12% Tris Glycine gel. The peak tubes with GST-cMET are pooled and the OD280 is read with the column buffer listed above as the blank buffer.
# Phosphorylation of the purified GST-cMET is performed by incubating the protein for 3 h at RT with the following:
# After incubation, the solution is concentrated in a Vivaspin 20 mL Concentrator to a volume less than 2.00 mL. The solution is applied to the same Superdex 75 16/60 column used above after re-equilibration. The GST-cMET is eluted as described above. The elution fractions corresponding to the first eluted peak on the chromatogram are run on a 12% Tris Glycine gel, as above, to identify the fractions with GST-cMET. Fractions are pooled and the OD280 is read with the column buffer used as the blank.
# A Kinase reaction Buffer is prepared as follows:
# When the assay is carried out, freshly add:
# The HTRF buffer contains: 50 mM Tris-HCl (pH 7.5), 100 mM NaCl, 0.1% BSA, 0.05% Tween 20.5 mM EDTA Fresh add SA-APC (PJ25S Phycolink Streptavidin-Allophycocyanin Conjugate, Prozyme Inc.) and Eu-PT66 (Eu-W1024 labeled anti-phosphorotyrosine antibody PT66, AD0069, Lot 168465, Perkin-Elmer Inc.) to reach the final concentration: • 0.1 nM final Eu-PT66 • 11 nM final SA-APC Methods: 1. Dilute GST-cMet (P) enzyme in kinase buffer as follows: Prepare 8 nM GST-cMet (P) working solution (7.32 μM to 8 nM, 915 X, 10 μL to 9.15 mL). In a 96 well clear plate [Costar # 3365] add 100 μL in eleven columns, in one column add 100 μL kinase reaction buffer alone. 2. Assay plate preparation: Use Biomek FX to transfer 10 μL 8 nM GST-cMet (P) enzyme, 48.4 μL kinase reaction buffer, 1.6 μL compound (in DMSO) (Start concentration at 10 mM, 1 mM and 0.1 mM, sequential dilution 1:3 to reach 10 test points) in a 96 well costar clear plate [Costar # 3365], mix several times. Then incubate the plate at RT for 30 min. 3. Prepare Gastrin and ATP working solution in kinase reaction buffer as follows: Prepare 4 μM Gastrin and 16 μM ATP working solution
# Use Biomek FX to add 20 μl ATP and Gastrin working solution to the assay plate to start reaction, incubate the plate at RT for 1 h. 4. Transfer 5 μL reaction product at the end of 1 h into 80 μL HTRF buffer in black plate [Costar # 3356], read on Discover after 30 min incubation.
# T1 sequence (P08581 1058-1365): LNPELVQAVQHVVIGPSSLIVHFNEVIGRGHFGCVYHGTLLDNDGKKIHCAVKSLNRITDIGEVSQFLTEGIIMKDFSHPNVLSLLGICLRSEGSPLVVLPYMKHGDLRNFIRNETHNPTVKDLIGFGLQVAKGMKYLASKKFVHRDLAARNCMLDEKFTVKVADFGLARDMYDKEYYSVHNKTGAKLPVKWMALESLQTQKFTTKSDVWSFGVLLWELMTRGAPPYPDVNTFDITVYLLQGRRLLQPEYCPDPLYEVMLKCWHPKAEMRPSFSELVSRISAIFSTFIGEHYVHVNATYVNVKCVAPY
row,SMILES,Ki
1,"CN1CCN(C(=O)Nc2cc(Oc3ccc(-c4cnc(Nc5ccccc5)n(C)c4=O)nc3)ccn2)CC1 [Example 7, 4-methyl-N-(4-(6-(1-methyl-6-oxo-2-(phenylamino)-1,6-dihydropyrimidin-5-yl)pyridin-3-yloxy)pyridin-2-yl)piperazine-1-carboxamide]",0.087 µM
2,"Cn1c(Nc2ccccc2F)ncc(-c2ccc(Oc3ccnc(NC(=S)N4CCCC4)c3)cn2)c1=O [Example 3, N-(4-(6-(2-(2-fluorophenylamino)-1-methyl-6-oxo-1,6-dihydropyrimidin-5-yl)pyridin-3-yloxy)pyridin-2-yl)pyrrolidine-1-carbothioamide]",0.11 µM
3,"Cn1c(Nc2ccccc2)ncc(-c2ccc(Oc3ccnc(NC(=O)N4CCCC4)c3)cn2)c1=O [Example 1, N-(4-(6-(1-methyl-6-oxo-2-(phenylamino)-1,6-dihydropyrimidin-5-yl)pyridin-3-yloxy)pyridin-2-yl)pyrrolidine-1-carboxamide]",0.011 µM
4,"Cn1c(Nc2ccccc2)ncc(-c2ccc(Oc3ccnc(NC(=O)N4CCOCC4)c3)cn2)c1=O [Example 6, N-(4-(6-(1-methyl-6-oxo-2-(phenylamino)-1,6-dihydropyrimidin-5-yl)pyridin-3-yloxy)pyridin-2-yl)morpholine-4-carboxamide]",0.057 µM

# Results, then the compound that gave them:
row,Ki,SMILES
1,> 20 µM,"Cc1noc(-c2cccc(Nc3nccc(Oc4ccc(-c5cnc(Cc6ccccc6)n(C)c5=O)cc4F)n3)c2)n1 [Example 13, 2-benzyl-5-(3-fluoro-4-(2-(3-(3-methyl-1,2,4-oxadiazol-5-yl)phenylamino)pyrimidin-4-yloxy)phenyl)-3-methylpyrimidin-4(3H)-one]"
2,0.012 µM,"CCn1c(Nc2ccc(F)cc2)ncc(-c2ccc(Oc3ccnc(NC(=O)N4CCC4)c3)c(F)c2)c1=O [Example 21, N-(4-(4-(1-ethyl-2-(4-fluorophenylamino)-6-oxo-1,6-dihydropyrimidin-5-yl)-2-fluorophenoxy)pyridin-2-yl)azetidine-1-carboxamide]"
3,0.011 µM,"Cn1c(Nc2cccc(F)c2)ncc(-c2ccc(Oc3ccnc(NC(=O)N4CCCC4)c3)cn2)c1=O [Example 25, N-(4-(6-(2-(3-fluorophenylamino)-1-methyl-6-oxo-1,6-dihydropyrimidin-5-yl)pyridin-3-yloxy)pyridin-2-yl)pyrrolidine-1-carboxamide]"
4,2.34 µM,"CNc1nccc(Oc2ccc(-c3cnc(Cc4ccccc4)n(C)c3=O)cc2F)n1 [Example 14, 2-benzyl-5-(3-fluoro-4-(2-(methylamino)pyrimidin-4-yloxy)phenyl)-3-methylpyrimidin-4(3H)-one]"
5,0.03 µM,"Cn1c(Nc2cccc(F)c2)ncc(-c2ccc(Oc3ccnc(NC(=S)N4CCCC4)c3)cn2)c1=O [Example 26, N-(4-(6-(2-(3-fluorophenylamino)-1-methyl-6-oxo-1,6-dihydropyrimidin-5-yl)pyridin-3-yloxy)pyridin-2-yl)pyrrolidine-1-carbothioamide]"
6,0.006 µM,"Cn1c(Nc2ccc(F)cc2)ncc(-c2ccc(Oc3ccnc(NC(=O)N4CCCC4)c3)cn2)c1=O [Example 10, N-(4-(6-(2-(4-fluorophenylamino)-1-methyl-6-oxo-1,6-dihydropyrimidin-5-yl)pyridin-3-yloxy)pyridin-2-yl)pyrrolidine-1-carboxamide]"
